Test results from ChEMBL document CHEMBL4138295, “Late-Stage Microsomal Oxidation Reduces Drug-Drug Interaction and Identifies Phosphodiesterase 2A Inhibitor PF-06815189” (ACS Med Chem Lett, 2018).
pIC50: −log10 of the molar value. Active and inactive are the calls of the source. No cut-off for these calls is given here.

Tests used:
[1] = Apparent permeability in RRCK cells; assay type: ADME, cell-based, Canis lupus familiaris; conditions: dog, mdckii-le
[2] = target: cGMP-dependent 3',5'-cyclic phosphodiesterase (Homo sapiens, UniProt O00408); assay: Inhibition of human PDE2A1 using 3',5'-[3H]cGMP as substrate measured after 30 mins by Yttrium silicate scintillation proximity assay
Cytochrome P450 3A4 = Cytochrome P450 3A4 (Homo sapiens, UniProt P08684); assay: Binding affinity to recombinant human CYP3A4 expressed in microsomes at 1 uM after 3 to 60 mins in presence of NADPH by HPLC-MS analysis; assay type: ADME
[3] = Drug metabolism in cynomolgus monkey liver microsomes assessed as PF-06815189 formation at 20 uM measured after 50 mins by UHPLC-UV analysis; assay type: ADME, Macaca fascicularis, microsome
[4] = Drug metabolism in cynomolgus monkey liver microsomes assessed as 5-(hydroxymethyl)-7-(3-(hydroxymethyl)-1-methyl-5-(4-(trifluoromethyl)phenyl)-1H-pyrazol-4-yl)-2-methylimidazo[1,5-f][1,2,4]triazin-4(3H)-one formation at 20 uM measured after 50 mins by UHPLC-UV analysis; assay type: ADME, Macaca fascicularis, microsome
[5] = Drug metabolism in cynomolgus monkey liver microsomes assessed as 7-(3-(hydroxymethyl)-1-methyl-5-(4-(trifluoromethyl)phenyl)-1H-pyrazol-4-yl)-2,5-dimethylimidazo[1,5-f][1,2,4]triazin-4(3H)-one formation at 20 uM measured after 50 mins by UHPLC-UV analysis; assay type: ADME, Macaca fascicularis, microsome
Canis familiaris [6] = assay: Half life in Beagle dog at 1 mg/kg, iv or po via gavage by LC-MS/MS analysis; assay type: ADME, organism-based, Canis lupus familiaris; conditions: in vivo
Cynomolgus monkey [7] = assay: Half life in cynomolgus monkey at 1 mg/kg, iv or po via gavage by LC-MS/MS analysis; assay type: ADME, organism-based, Macaca fascicularis; conditions: in vivo
Homo sapiens [8] = species: Homo sapiens; assay: Inhibition of sodium channel site 2 (unknown origin) at 10 uM relative to control
Canis familiaris [9] = assay: Volume of distribution at steady state in Beagle dog at 1 mg/kg, iv or po via gavage by LC-MS/MS analysis; assay type: ADME, organism-based, Canis lupus familiaris; conditions: in vivo
[10] = Drug recovery in Beagle dog at 1 mg/kg, iv or po via gavage measured up to 24 hrs by LC-MS/MS analysis; assay type: ADME, organism-based, Canis lupus familiaris; conditions: in vivo, read-out: Drug recovery
[11] = Drug recovery in cynomolgus monkey at 1 mg/kg, iv or po via gavage measured up to 24 hrs by LC-MS/MS analysis; assay type: ADME, organism-based, Macaca fascicularis; conditions: in vivo, read-out: Drug recovery
Rattus norvegicus [12] = assay: Oral bioavailability in Wistar-Han rat at 5 mg/kg administered via gavage by LC-MS/MS analysis; assay type: ADME, organism-based; conditions: in vivo
[13] = target: cGMP-specific 3',5'-cyclic phosphodiesterase (Homo sapiens, UniProt O76074); assay: Inhibition of PDE5A1 (unknown origin) using 3',5'-[3H]cGMP as substrate measured after 30 mins by Yttrium silicate scintillation proximity assay
[14] = Oral bioavailability in Beagle dog at 5 mg/kg administered via gavage by LC-MS/MS analysis; assay type: ADME, organism-based, Canis lupus familiaris; conditions: in vivo
[15] = Half life in Wistar-Han rat at 1 mg/kg, iv or 5 mg/kg, po via gavage by LC-MS/MS analysis; assay type: ADME, organism-based; conditions: in vivo
Cavia porcellus = assay: Inhibition of histamine-mediated increase in vascular permeability in guinea pig assessed as reduction in extravasation of Evan's blue dye-labeled albumin from blood to skin at 0.3 to 10 mg/kg, sc measured after 30 mins by spectrophotometric method; assay type: functional, organism-based
Homo sapiens [16] = species: Homo sapiens; assay: Selectivity ratio of IC50 for PDE5A1 (unknown origin) to IC50 for human PDE2A1
Rattus norvegicus [17] = assay: Volume of distribution at steady state in Wistar-Han rat at 1 mg/kg, iv or 5 mg/kg, po via gavage by LC-MS/MS analysis; assay type: ADME, organism-based; conditions: in vivo
[18] = Oral bioavailability in cynomolgus monkey at 5 mg/kg administered via gavage by LC-MS/MS analysis; assay type: ADME, organism-based, Macaca fascicularis; conditions: in vivo
Cynomolgus monkey [19] = assay: Volume of distribution at steady state in cynomolgus monkey at 1 mg/kg, iv or po via gavage by LC-MS/MS analysis; assay type: ADME, organism-based, Macaca fascicularis; conditions: in vivo
[20] = Drug recovery in Wistar-Han rat at 1 mg/kg, iv or 5 mg/kg, po via gavage measured up to 24 hrs by LC-MS/MS analysis; assay type: ADME, organism-based; conditions: in vivo, read-out: Drug recovery

Chain of cGMP-dependent 3',5'-cyclic phosphodiesterase (O00408 whole entry): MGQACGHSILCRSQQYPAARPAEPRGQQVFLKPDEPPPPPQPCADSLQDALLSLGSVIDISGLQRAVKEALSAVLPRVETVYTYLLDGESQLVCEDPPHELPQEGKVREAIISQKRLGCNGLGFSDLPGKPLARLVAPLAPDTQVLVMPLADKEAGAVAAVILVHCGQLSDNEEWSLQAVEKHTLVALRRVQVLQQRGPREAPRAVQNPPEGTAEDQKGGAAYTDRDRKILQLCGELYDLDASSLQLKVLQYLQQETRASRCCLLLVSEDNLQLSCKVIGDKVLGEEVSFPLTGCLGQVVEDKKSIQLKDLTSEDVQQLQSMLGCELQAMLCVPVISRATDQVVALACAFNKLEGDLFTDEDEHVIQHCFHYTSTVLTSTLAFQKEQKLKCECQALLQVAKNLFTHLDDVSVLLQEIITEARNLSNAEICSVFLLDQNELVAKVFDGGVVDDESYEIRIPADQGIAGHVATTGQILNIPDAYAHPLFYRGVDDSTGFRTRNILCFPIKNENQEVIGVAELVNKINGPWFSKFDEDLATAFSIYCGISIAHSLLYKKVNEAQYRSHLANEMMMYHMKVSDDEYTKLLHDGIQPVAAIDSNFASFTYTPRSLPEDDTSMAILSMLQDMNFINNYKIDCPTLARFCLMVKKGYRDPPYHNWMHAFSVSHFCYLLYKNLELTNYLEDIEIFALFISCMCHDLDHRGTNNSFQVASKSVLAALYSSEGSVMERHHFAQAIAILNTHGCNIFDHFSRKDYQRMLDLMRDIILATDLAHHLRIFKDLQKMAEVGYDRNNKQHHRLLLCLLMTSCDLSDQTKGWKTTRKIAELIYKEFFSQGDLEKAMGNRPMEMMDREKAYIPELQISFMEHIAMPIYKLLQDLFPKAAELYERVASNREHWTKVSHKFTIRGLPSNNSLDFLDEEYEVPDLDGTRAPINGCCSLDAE
Chain of Cytochrome P450 3A4 (P08684 whole entry): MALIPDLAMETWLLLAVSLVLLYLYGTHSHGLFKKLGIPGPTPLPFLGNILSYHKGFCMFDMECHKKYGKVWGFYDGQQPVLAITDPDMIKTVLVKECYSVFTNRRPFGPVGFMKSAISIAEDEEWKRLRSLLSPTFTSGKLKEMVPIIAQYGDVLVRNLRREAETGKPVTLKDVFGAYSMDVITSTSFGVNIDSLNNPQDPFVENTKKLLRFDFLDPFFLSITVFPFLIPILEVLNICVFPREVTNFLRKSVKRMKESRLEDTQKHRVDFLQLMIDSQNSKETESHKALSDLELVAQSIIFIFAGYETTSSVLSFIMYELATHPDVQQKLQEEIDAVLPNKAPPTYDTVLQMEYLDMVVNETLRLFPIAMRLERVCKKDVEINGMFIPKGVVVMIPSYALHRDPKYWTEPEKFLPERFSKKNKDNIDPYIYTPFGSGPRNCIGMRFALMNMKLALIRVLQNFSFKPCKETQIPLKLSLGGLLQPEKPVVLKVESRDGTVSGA

Compound `Cc1nn2c(-c3c(CO)nn(C)c3-c3ccc(C(F)(F)F)cc3)nc(CO)c2c(=O)[nH]1` has a Papp [1] of 5 ×10⁻⁶ cm/s.

Compound `Cc1nn2c(-c3c(CO)nn(C)c3-c3ccc(C(F)(F)F)cc3)nc(C)c2c(=O)[nH]1` has a Papp [1] of 17 ×10⁻⁶ cm/s and a pIC50 [2] of 8.16.

For `Cc1nn2c(-c3c(C)nn(C)c3-c3ccc(C(F)(F)F)cc3)nc(C)c2c(=O)[nH]1`, the Activity (Cytochrome P450 3A4) was “Active”, the Drug metabolism [3] was “Metabolite_Detected” and the Drug metabolism [4] was “Metabolite_Detected”. For the same compound, the Drug metabolism [5] was “Metabolite_Detected” and the pIC50 [2] was 9.22.

Compound `Cc1nn2c(-c3c(C)nn(C)c3-c3ccc(C(F)(F)F)cc3)nc(CO)c2c(=O)[nH]1` has a t1/2 (Canis familiaris [6]) of 4.8 h, a Papp [1] of 8 ×10⁻⁶ cm/s and a t1/2 (Cynomolgus monkey [7]) of 3.6 h. It also gave an inhibition (Homo sapiens [8]) of 17%, a Vdss (Canis familiaris [9]) of 0.4 L/kg and a dose excreted at 24 h [10] of 48%. The dose excreted at 24 h [11] was 26%, the F (Rattus norvegicus [12]) was 50% and the pIC50 [13] was 5.61. For the same compound, the bioavailability [14] was 79%, the half-life [15] was 72 min and the inhibition (Cavia porcellus) was “Active”. The Ratio IC50 (Homo sapiens [16]) was 1000, the Vdss (Rattus norvegicus [17]) was 1.5 L/kg and the bioavailability [18] was 61%. For the same compound, the pIC50 [2] was 9.40, the Vdss (Cynomolgus monkey [19]) was 0.8 L/kg and the dose excreted at 24 h [20] was 22%.
